US20250163104A1, “MACROCYCLIC IMMUNOMODULATORS” (priority 2021, published 2025)
*1 amine or outer side, *2 acyl side, *3 side chain or, on linkers, in order; H or OH if unused. Where a SMILES comes first, the peptide text is derived from it. Bridges are numbered along the chain shown (N, C = ends). [ ]: non-standard residue; d: D form. The star is where a group is joined. ξ: configuration not given here. Phe(4-COOH) = N[C@@H](Cc1ccc(C(=O)O)cc1)C(=O)O; Bip = N[C@@H](Cc1ccc(-c2ccccc2)cc1)C(=O)O; Phe(3-Cl) = N[C@@H](Cc1cccc(Cl)c1)C(=O)O; Phe(3-OMe) = COc1cccc(C[C@H](N)C(=O)O)c1; Phe(3-Me) = Cc1cccc(C[C@H](N)C(=O)O)c1; γGlu = O=C(O)[C@H](CCC(=O)[*:2])N[*:1]; Val(3-OH) = CC(C)(O)[C@H](N)C(=O)O; 3Pal = N[C@@H](Cc1cccnc1)C(=O)O; 4Pal = N[C@@H](Cc1ccncc1)C(=O)O; 2Thi = N[C@@H](Cc1cccs1)C(=O)O; Cha = N[C@@H](CC1CCCCC1)C(=O)O; Cit = NC(=O)NCCC[C@H](N)C(=O)O; Ile(3ξ) = CCC(C)[C@H](N)C(=O)O; Thr(3ξ) = CC(O)[C@H](N)C(=O)O; Carboxymethyl = O=C(O)C*; Nle = CCCC[C@H](N)C(=O)O; Orn = NCCC[C@H](N)C(=O)O; Pra = C#CC[C@H](N)C(=O)O; Dab = NCC[C@H](N)C(=O)O; Dap = NC[C@H](N)C(=O)O; NHCH2CH2OMe = COCCN*; Propargyl = C#CC*

These compounds were tested against T1, human PD-1 / PD-L1-Ig binding on Jurkat cell line over-expressing human PD-1 (Jurkat-PD-1) (Homo sapiens, UniProt Q15116) (assay: Jurkat-PD-1 Cell Binding High-Content Screening Assay (CBA)). Conditions: Jurkat-PD-1 cells, PE-labeled PD-L1-Ig 20 nM final; read-out: Jurkat HPD1_PDL1 IC50.
T1 construct: expressed in transfected cells; host or cells: Jurkat
Type: cell-based
How it was run: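 Read-out: high-content imaging of PE-tagged PD-L1-Ig bound to Jurkat cells overexpressing human PD-1, after fixation with 4% paraformaldehyde and Hoechst 33342 nuclear staining. Ligand was used at 20 nM final for 1 hour, after a 2 h compound exposure at 37° C in serum-containing DMEM.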

T1 sequence (Q15116 25-288): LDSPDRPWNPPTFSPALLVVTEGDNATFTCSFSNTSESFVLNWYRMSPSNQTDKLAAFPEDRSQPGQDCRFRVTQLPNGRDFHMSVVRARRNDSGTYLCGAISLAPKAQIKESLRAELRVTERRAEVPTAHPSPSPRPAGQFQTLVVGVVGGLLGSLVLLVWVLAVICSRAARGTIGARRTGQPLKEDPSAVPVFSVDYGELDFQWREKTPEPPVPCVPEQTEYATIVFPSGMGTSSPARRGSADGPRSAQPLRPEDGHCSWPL

SMILES | IC50 [µM]
CC(C)C[C@H]1NC(=O)[C@H](CCCN)NC(=O)[C@H](CCCN)NC(=O)[C@H](Cc2ccc(-c3ccccc3)cc2)NC(=O)[C@H](C(C)C)NC(=O)[C@H](Cc2c[nH]c3ccccc23)NC(=O)[C@H](CC(=O)O)NC(=O)[C@H](Cc2ccc(OCC(=O)O)cc2)NC(=O)[C@H](Cc2ccncc2)NC(=O)CSC[C@@H](C(=O)N[C@@H](C)C(N)=O)NC(=O)[C@H]([C@@H](C)O)NC(=O)[C@H](C(C)C)NC(=O)[C@H](CC2CCCCC2)NC(=O)[C@H](CCN)NC1=O [Compound 1390] | 0.0165
CC(C)C[C@H]1NC(=O)[C@H](CCCN)NC(=O)[C@H](CCC(=O)O)NC(=O)[C@H](Cc2ccc(-c3ccccc3)cc2)NC(=O)[C@H](C(C)C)NC(=O)[C@H](Cc2c[nH]c3ccccc23)NC(=O)[C@H](CC(=O)O)NC(=O)[C@H](Cc2ccc(OCC(=O)O)cc2)NC(=O)[C@H](CN)NC(=O)CSC[C@@H](C(=O)N[C@@H](C)C(N)=O)NC(=O)[C@H]([C@@H](C)O)NC(=O)[C@H](C(C)C)NC(=O)[C@H](Cc2cccc(Cl)c2)NC(=O)[C@H](CCN)NC1=O [Compound 1506] ({CH2CO}-[Dap]Y(Carboxymethyl)DWV[Bip]E[Orn][dL][Dab][Phe(3-Cl)]VTCA-NH2; thioether N-14) | 0.0567
COc1cccc(C[C@@H]2NC(=O)[C@H](CC(=O)O)NC(=O)[C@H](Cc3ccc(OCC(=O)O)cc3)NC(=O)[C@H](Cc3ccccc3)NC(=O)CSC[C@@H](C(=O)N[C@@H](C)C(N)=O)NC(=O)[C@H]([C@@H](C)O)NC(=O)[C@H](C(C)C)NC(=O)[C@H](CC3CCCCC3)NC(=O)[C@H](CCN)NC(=O)[C@@H](CC(C)C)NC(=O)[C@H](CCCN)NC(=O)[C@H](CCC(=O)O)NC(=O)[C@H](Cc3ccc(-c4ccccc4)cc3)NC(=O)[C@H](C(C)C)NC2=O)c1 [Compound 1542] ({CH2CO}-FY(Carboxymethyl)D[Phe(3-OMe)]V[Bip]E[Orn][dL][Dab][Cha]VTCA-NH2; thioether N-14) | 0.0186
CCC(C)[C@@H]1NC(=O)[C@H](Cc2ccc(-c3ccccc3)cc2)NC(=O)[C@H](C(C)C)NC(=O)[C@H](Cc2c[nH]c3ccccc23)NC(=O)[C@H](CC(=O)O)NC(=O)[C@H](Cc2cccnc2)NC(=O)[C@H](Cc2ccccc2)NC(=O)CSC[C@@H](C(=O)N[C@@H](C)C(N)=O)NC(=O)[C@H]([C@@H](C)O)NC(=O)[C@H](C(C)C)NC(=O)[C@H](CC2CCCCC2)NC(=O)[C@H](CCN)NC(=O)[C@@H](CC(C)C)NC(=O)[C@H](CCCN)NC1=O (stereo partly drawn) [Compound 2229] ({CH2CO}-F[3Pal]DWV[Bip][Ile(3ξ)][Orn][dL][Dab][Cha]VTCA-NH2; thioether N-14) | 0.0215
CCCC[C@@H]1NC(=O)[C@H](CCN)NC(=O)[C@@H](CC(C)C)NC(=O)[C@H](CCCN)NC(=O)[C@H](CCCNC(N)=O)NC(=O)[C@H](Cc2ccc(-c3ccccc3)cc2)NC(=O)[C@H](C(C)C)NC(=O)[C@H](Cc2cccc(C)c2)NC(=O)[C@H](CC(=O)O)NC(=O)[C@H](Cc2ccc(OCC(=O)O)cc2)NC(=O)[C@H](Cc2ccncc2)NC(=O)CSC[C@@H](C(=O)N[C@@H](C)C(N)=O)NC(=O)[C@H]([C@@H](C)O)NC(=O)[C@H](C(C)C)NC1=O [Compound 1195] ({CH2CO}-[4Pal]Y(Carboxymethyl)D[Phe(3-Me)]V[Bip][Cit][Orn][dL][Dab][Nle]VTCA-NH2; thioether N-14) | 0.0138
Cc1cccc(C[C@@H]2NC(=O)[C@H](CC(=O)O)NC(=O)[C@H](Cc3ccc(C(=O)O)cc3)NC(=O)[C@H](Cc3ccncc3)NC(=O)CSC[C@@H](C(=O)N[C@@H](CC(N)=O)C(N)=O)NC(=O)[C@H](C(C)O)NC(=O)[C@H](C(C)C)NC(=O)[C@H](CC3CCCCC3)NC(=O)[C@H](CCN)NC(=O)[C@@H](CC(C)C)NC(=O)[C@H](CCCN)NC(=O)[C@H](Cc3ccc(O)cc3)NC(=O)[C@H](Cc3ccc(-c4ccccc4)cc3)NC(=O)[C@H](C(C)C)NC2=O)c1 (stereo partly drawn) [Compound 2288] ({CH2CO}-[4Pal][Phe(4-COOH)]D[Phe(3-Me)]V[Bip]Y[Orn][dL][Dab][Cha]V[Thr(3ξ)]CN-NH2; thioether N-14) | 0.0146
CC(C)C[C@H]1NC(=O)[C@H](CCCN)NC(=O)[C@H](CCC(=O)O)NC(=O)[C@H](Cc2ccc(-c3ccccc3)cc2)NC(=O)[C@H](C(C)C)NC(=O)[C@H](Cc2cccs2)NC(=O)[C@H](CC(=O)O)NC(=O)[C@H](Cc2cccs2)NC(=O)[C@H](Cc2ccccc2)NC(=O)CSC[C@@H](C(=O)N[C@@H](C)C(N)=O)NC(=O)[C@H]([C@@H](C)O)NC(=O)[C@H](C(C)C)NC(=O)[C@H](CC2CCCCC2)NC(=O)[C@H](CCN)NC1=O [Compound 2204] ({CH2CO}-F[2Thi]D[2Thi]V[Bip]E[Orn][dL][Dab][Cha]VTCA-NH2; thioether N-14) | 0.0244
Cc1cccc(C[C@@H]2NC(=O)[C@H](CC(=O)O)NC(=O)[C@H](Cc3ccc(OCC(=O)O)cc3)NC(=O)[C@H](Cc3ccncc3)NC(=O)CSC[C@@H](C(=O)N[C@H](CC(N)=O)C(N)=O)NC(=O)[C@H](CO)NC(=O)[C@H](C(C)(C)O)NC(=O)[C@H](CC3CCCCC3)NC(=O)[C@H](CCN)NC(=O)[C@@H](CC(C)C)NC(=O)[C@H](CCCN)NC(=O)[C@H](Cc3ccc(OCC(=O)O)cc3)NC(=O)[C@H](Cc3ccc(-c4ccccc4)cc3)NC(=O)[C@H](Cc3ccc(C(=O)O)cc3)NC2=O)c1 [Compound 2628] ({CH2CO}-[4Pal]Y(Carboxymethyl)D[Phe(3-Me)][Phe(4-COOH)][Bip]Y(Carboxymethyl)[Orn][dL][Dab][Cha][Val(3-OH)]SC[dN]-NH2; thioether N-14) | 0.0206
CC(C)C[C@@H]1NC(=O)[C@H](CCN)NC(=O)[C@@H](CC(C)C)NC(=O)[C@H](CN)NC(=O)[C@H](CCCNC(N)=O)NC(=O)[C@H](Cc2ccc(-c3ccccc3)cc2)NC(=O)[C@H](C(C)C)NC(=O)[C@H](Cc2c[nH]c3ccccc23)NC(=O)[C@H](CC(=O)O)NC(=O)[C@H](Cc2ccc(O)cc2)NC(=O)[C@H](CC(N)=O)NC(=O)CSC[C@@H](C(=O)N[C@@H](C)C(N)=O)NC(=O)[C@H]([C@@H](C)O)NC(=O)[C@H](C(C)C)NC1=O [Compound 1024] ({CH2CO}-NYDWV[Bip][Cit][Dap][dL][Dab]LVTCA-NH2; thioether N-14) | 0.0373

These reach a lower IC50. Values come first.

IC50 [µM] | SMILES
0.0122 | C#CC[C@H](NC(=O)CC[C@H](NC(=O)[C@H](CCN)NC(=O)[C@@H]1CSCC(=O)N[C@@H](CCN)C(=O)N[C@@H](Cc2ccc(OCC(=O)O)cc2)C(=O)N[C@@H](CC(=O)O)C(=O)N[C@@H](Cc2cccc(C)c2)C(=O)N[C@@H](Cc2ccc(C(=O)O)cc2)C(=O)N[C@@H](Cc2ccc(-c3ccccc3)cc2)C(=O)N[C@@H](Cc2ccc(C(=O)O)cc2)C(=O)N[C@@H](CCCN)C(=O)N[C@H](CC(C)C)C(=O)N[C@@H](Cc2cnc[nH]2)C(=O)N[C@@H](CC2CCCCC2)C(=O)N[C@@H](C(C)(C)O)C(=O)N[C@@H](CCC(=O)O)C(=O)N1)C(=O)O)C(N)=O [Compound 2678] ({CH2CO}-[Dab]Y(Carboxymethyl)D[Phe(3-Me)][Phe(4-COOH)][Bip][Phe(4-COOH)][Orn][dL]H[Cha][Val(3-OH)]EC[Dab][γGlu][Pra]-NH2; thioether N-14)
0.0099 | Cc1cccc(C[C@@H]2NC(=O)[C@H](CC(=O)O)NC(=O)[C@H](Cc3ccc(C(=O)O)cc3)NC(=O)[C@H](Cc3ccc(OCC(=O)O)cc3)NC(=O)CSC[C@@H](C(=O)N[C@@H](C)C(N)=O)NC(=O)[C@H]([C@@H](C)O)NC(=O)[C@H](C(C)C)NC(=O)[C@H](CC3CCCCC3)NC(=O)[C@H](CCN)NC(=O)[C@@H](CC(C)C)NC(=O)[C@H](CCCN)NC(=O)[C@H](CCCN)NC(=O)[C@H](Cc3ccc(-c4ccccc4)cc3)NC(=O)[C@H](C(C)C)NC2=O)c1 [Compound 1414]
0.0073 | COCCNC(=O)[C@H](CCN)NC(=O)[C@@H]1CSCC(=O)N[C@@H]([C@@H](C)O)C(=O)N[C@@H](Cc2ccc(C(=O)O)cc2)C(=O)N[C@@H](CC(=O)O)C(=O)N[C@@H](Cc2cccc(C)c2)C(=O)N[C@@H](Cc2ccc(OCC(=O)O)cc2)C(=O)N[C@@H](Cc2ccc(-c3ccccc3)cc2)C(=O)N[C@@H](Cc2ccc(OCC(=O)O)cc2)C(=O)N[C@@H](CCCN)C(=O)N[C@H](CC(C)C)C(=O)N[C@@H](CCN)C(=O)N[C@@H](CC2CCCCC2)C(=O)N[C@@H](C(C)(C)O)C(=O)N[C@@H](CO)C(=O)N1 [Compound 2077] ({CH2CO}-T[Phe(4-COOH)]D[Phe(3-Me)]Y(Carboxymethyl)[Bip]Y(Carboxymethyl)[Orn][dL][Dab][Cha][Val(3-OH)]SC[Dab]-NHCH2CH2OMe; thioether N-14)
0.0059 | Cc1cccc(C[C@@H]2NC(=O)[C@H](CC(=O)O)NC(=O)[C@H](Cc3ccc(C(=O)O)cc3)NC(=O)[C@H](Cc3ccncc3)NC(=O)CSC[C@@H](C(=O)N[C@@H](CCN)C(N)=O)NC(=O)[C@H](CCC(N)=O)NC(=O)[C@H](C(C)C)NC(=O)[C@H](CC3CCCCC3)NC(=O)[C@H](CCN)NC(=O)[C@@H](CC(C)C)NC(=O)[C@H](CCCN)NC(=O)[C@H](Cc3ccc(OCC(=O)O)cc3)NC(=O)[C@H](Cc3ccc(-c4ccccc4)cc3)NC(=O)[C@H](Cc3ccc(OCC(=O)O)cc3)NC2=O)c1 [Compound 2309] ({CH2CO}-[4Pal][Phe(4-COOH)]D[Phe(3-Me)]Y(Carboxymethyl)[Bip]Y(Carboxymethyl)[Orn][dL][Dab][Cha]VQC[Dab]-NH2; thioether N-14)
0.0015 | C#CCOc1ccc(C[C@@H]2NC(=O)[C@H](Cc3cccc(C)c3)NC(=O)[C@H](CC(=O)O)NC(=O)[C@H](Cc3ccc(OCC(=O)O)cc3)NC(=O)[C@H](CCCC)NC(=O)CSC[C@@H](C(=O)N[C@@H](CCN)C(N)=O)NC(=O)[C@H](CCC(=O)O)NC(=O)[C@H](C(C)C)NC(=O)[C@H](CC3CCCCC3)NC(=O)[C@H](CCN)NC(=O)[C@@H](CC(C)C)NC(=O)[C@H](CCCN)NC(=O)[C@H](Cc3ccc(OCC(=O)O)cc3)NC(=O)[C@H](Cc3ccc(-c4ccccc4)cc3)NC2=O)cc1 [Compound 1833] ({CH2CO}-[Nle]Y(Carboxymethyl)D[Phe(3-Me)]Y(Propargyl)[Bip]Y(Carboxymethyl)[Orn][dL][Dab][Cha]VEC[Dab]-NH2; thioether N-14)
